Assays:
Details in all cases: binder
[1] = biological target: EphA4 (Homo sapiens, UniProt P54764)
[2] = biological target: p38a (Homo sapiens, UniProt Q16539)
[3] = biological target: T1, AurA (Homo sapiens, UniProt O14965)
T1 sequence (O14965 1-403): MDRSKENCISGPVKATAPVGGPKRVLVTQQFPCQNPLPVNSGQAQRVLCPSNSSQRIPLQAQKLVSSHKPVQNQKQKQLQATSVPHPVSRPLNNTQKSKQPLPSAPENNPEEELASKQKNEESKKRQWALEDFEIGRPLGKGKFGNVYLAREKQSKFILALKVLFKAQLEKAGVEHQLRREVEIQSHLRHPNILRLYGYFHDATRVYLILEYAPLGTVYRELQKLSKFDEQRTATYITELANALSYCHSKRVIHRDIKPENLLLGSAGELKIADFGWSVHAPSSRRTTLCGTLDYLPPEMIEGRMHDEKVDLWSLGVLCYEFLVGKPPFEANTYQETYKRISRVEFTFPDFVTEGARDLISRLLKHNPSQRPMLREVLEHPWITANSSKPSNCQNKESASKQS

[4] = biological target: T2, MAP2K6 (Homo sapiens, UniProt P52564)
T2 sequence (P52564 1-334): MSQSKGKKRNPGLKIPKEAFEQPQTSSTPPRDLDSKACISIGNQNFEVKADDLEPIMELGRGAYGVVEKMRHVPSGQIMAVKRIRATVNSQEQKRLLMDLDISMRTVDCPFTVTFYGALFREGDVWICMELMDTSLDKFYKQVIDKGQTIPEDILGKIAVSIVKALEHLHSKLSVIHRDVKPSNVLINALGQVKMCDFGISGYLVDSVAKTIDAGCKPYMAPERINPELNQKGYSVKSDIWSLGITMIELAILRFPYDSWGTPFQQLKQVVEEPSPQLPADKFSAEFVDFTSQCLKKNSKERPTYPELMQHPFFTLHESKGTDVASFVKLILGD

[5] = biological target: T3, MAP2K7 (Homo sapiens, UniProt O14733)
T3 sequence (O14733 1-419): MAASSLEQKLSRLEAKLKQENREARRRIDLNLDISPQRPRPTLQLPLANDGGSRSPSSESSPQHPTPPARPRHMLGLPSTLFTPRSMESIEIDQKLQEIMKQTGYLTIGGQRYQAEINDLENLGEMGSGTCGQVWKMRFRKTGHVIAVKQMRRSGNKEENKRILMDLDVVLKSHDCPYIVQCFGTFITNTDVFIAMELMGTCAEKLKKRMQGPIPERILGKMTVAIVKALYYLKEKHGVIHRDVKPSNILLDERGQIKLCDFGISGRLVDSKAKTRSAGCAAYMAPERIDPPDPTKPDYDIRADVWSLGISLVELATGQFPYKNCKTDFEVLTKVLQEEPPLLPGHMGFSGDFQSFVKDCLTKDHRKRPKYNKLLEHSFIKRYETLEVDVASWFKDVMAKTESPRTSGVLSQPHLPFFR

[6] = biological target: T4, PLK4 (Homo sapiens, UniProt O00444)
T4 sequence (O00444 1-970): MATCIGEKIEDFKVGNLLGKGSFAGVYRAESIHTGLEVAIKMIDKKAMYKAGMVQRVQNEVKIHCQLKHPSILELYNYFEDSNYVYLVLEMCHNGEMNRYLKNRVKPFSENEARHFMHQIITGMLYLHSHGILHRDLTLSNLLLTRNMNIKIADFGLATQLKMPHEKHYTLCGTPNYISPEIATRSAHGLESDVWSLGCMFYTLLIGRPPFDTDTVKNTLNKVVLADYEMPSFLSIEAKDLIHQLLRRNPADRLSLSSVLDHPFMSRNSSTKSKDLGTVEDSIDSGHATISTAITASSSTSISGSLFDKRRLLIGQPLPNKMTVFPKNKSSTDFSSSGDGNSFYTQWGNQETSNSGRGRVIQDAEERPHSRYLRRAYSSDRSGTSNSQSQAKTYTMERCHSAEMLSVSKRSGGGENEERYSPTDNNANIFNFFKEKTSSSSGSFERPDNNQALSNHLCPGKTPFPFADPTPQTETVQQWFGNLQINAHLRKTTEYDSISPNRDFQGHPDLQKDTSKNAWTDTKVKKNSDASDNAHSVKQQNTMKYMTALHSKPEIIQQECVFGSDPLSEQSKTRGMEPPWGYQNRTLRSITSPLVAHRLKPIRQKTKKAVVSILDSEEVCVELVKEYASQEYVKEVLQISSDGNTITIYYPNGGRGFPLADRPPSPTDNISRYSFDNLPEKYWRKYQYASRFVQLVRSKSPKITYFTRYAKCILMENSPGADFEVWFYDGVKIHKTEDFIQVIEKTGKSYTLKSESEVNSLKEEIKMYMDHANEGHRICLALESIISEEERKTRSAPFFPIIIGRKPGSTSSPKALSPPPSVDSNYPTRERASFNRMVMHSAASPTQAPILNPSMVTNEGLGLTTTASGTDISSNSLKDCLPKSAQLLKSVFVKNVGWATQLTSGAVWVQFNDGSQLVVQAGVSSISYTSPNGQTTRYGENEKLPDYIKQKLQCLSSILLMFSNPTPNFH

[7] = biological target: Erk3 (Homo sapiens, UniProt Q16659)
[8] = biological target: FES (Homo sapiens, UniProt P07332)
[9] = biological target: CK1e (Homo sapiens, UniProt P49674)
[10] = biological target: BIKE (Homo sapiens, UniProt Q9NSY1)
BIKE, sequence (Q9NSY1 whole entry): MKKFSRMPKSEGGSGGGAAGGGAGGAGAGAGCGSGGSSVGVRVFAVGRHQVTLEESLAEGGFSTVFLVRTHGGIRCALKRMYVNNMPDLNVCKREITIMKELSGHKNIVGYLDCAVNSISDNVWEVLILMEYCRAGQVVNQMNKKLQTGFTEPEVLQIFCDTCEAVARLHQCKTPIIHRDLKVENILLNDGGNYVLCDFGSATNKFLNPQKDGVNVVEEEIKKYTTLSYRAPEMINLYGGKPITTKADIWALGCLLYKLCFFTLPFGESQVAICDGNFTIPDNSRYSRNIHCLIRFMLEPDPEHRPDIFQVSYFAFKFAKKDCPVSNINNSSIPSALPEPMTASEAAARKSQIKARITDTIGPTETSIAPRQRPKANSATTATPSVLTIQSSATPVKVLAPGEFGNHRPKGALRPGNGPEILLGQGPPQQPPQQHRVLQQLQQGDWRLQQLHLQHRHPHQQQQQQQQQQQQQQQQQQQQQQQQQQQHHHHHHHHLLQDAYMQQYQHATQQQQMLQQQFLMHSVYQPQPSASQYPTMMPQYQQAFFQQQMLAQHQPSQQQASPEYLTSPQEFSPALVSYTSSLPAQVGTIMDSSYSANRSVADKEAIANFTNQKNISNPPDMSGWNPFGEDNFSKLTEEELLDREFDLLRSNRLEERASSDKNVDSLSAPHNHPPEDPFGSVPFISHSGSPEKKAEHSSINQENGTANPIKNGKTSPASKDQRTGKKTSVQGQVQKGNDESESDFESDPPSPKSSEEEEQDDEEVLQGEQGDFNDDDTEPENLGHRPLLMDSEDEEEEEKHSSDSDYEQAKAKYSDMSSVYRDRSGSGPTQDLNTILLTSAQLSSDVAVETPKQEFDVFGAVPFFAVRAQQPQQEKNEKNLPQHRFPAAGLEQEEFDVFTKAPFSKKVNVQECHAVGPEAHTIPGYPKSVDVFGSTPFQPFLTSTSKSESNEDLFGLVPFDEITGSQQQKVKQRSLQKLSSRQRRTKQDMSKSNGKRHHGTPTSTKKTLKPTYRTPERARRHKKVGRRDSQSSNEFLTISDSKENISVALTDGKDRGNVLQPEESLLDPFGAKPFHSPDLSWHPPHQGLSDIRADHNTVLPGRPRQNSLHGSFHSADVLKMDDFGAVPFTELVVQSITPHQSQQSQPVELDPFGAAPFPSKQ

FES, sequence (P07332 whole entry): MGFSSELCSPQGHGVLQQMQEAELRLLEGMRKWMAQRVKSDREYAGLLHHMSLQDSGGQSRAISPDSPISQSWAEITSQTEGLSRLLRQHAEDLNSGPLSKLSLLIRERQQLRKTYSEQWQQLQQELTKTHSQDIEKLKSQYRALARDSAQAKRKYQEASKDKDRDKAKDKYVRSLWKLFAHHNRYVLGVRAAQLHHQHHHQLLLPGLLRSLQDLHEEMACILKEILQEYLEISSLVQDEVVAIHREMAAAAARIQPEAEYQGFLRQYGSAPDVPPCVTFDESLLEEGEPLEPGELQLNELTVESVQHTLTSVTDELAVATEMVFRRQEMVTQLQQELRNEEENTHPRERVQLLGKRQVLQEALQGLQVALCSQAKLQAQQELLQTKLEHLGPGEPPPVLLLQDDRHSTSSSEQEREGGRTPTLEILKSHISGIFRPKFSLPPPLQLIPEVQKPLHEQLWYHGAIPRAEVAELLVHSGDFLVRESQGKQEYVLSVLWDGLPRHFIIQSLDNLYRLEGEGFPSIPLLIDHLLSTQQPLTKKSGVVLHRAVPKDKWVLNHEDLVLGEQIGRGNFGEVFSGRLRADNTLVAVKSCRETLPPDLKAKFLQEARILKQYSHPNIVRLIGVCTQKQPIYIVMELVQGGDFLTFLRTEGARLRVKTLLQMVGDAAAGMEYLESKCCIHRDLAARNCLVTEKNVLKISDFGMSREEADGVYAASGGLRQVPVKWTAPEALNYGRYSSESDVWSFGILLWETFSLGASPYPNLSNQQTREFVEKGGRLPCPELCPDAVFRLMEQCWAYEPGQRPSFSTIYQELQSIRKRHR
p38a, sequence (Q16539 whole entry): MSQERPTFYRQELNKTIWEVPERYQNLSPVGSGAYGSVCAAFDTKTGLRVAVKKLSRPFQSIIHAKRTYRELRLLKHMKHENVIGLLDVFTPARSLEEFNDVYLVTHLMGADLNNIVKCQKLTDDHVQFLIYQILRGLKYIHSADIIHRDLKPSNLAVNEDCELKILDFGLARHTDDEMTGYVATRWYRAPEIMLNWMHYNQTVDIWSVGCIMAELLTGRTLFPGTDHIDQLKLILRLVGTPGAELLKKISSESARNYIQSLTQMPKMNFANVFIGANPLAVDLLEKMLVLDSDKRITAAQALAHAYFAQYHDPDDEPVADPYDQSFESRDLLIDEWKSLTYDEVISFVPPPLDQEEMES
CK1e, sequence (P49674 whole entry): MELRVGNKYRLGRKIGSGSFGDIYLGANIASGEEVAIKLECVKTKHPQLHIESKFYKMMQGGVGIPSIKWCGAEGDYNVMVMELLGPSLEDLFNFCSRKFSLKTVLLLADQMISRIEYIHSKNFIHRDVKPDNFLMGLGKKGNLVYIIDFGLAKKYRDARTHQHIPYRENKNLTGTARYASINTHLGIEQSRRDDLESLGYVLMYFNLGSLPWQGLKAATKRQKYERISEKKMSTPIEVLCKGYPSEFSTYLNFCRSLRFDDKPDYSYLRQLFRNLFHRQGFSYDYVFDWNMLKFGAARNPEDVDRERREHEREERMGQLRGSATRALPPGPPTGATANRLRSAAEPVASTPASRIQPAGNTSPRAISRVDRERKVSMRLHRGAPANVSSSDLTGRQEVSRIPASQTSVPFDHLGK
Erk3, sequence (Q16659 whole entry): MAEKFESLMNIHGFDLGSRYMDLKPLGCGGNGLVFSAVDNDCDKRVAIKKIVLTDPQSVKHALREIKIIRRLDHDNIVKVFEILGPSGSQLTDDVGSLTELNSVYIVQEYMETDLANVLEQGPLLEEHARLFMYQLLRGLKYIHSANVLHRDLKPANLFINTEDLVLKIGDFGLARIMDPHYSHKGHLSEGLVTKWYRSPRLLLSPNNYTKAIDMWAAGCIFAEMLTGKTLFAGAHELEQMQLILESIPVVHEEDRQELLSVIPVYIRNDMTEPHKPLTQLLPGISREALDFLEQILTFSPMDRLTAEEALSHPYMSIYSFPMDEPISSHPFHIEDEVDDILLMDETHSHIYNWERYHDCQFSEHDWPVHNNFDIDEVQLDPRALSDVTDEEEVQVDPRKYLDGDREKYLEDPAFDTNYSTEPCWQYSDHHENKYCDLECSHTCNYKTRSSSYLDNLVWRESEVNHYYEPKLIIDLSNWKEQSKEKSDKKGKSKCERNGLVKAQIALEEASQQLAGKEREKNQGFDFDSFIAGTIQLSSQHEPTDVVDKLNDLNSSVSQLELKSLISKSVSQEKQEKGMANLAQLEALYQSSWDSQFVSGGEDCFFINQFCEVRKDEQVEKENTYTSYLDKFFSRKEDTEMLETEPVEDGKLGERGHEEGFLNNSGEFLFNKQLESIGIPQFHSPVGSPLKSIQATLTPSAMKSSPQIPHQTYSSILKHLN
EphA4, sequence (P54764 whole entry): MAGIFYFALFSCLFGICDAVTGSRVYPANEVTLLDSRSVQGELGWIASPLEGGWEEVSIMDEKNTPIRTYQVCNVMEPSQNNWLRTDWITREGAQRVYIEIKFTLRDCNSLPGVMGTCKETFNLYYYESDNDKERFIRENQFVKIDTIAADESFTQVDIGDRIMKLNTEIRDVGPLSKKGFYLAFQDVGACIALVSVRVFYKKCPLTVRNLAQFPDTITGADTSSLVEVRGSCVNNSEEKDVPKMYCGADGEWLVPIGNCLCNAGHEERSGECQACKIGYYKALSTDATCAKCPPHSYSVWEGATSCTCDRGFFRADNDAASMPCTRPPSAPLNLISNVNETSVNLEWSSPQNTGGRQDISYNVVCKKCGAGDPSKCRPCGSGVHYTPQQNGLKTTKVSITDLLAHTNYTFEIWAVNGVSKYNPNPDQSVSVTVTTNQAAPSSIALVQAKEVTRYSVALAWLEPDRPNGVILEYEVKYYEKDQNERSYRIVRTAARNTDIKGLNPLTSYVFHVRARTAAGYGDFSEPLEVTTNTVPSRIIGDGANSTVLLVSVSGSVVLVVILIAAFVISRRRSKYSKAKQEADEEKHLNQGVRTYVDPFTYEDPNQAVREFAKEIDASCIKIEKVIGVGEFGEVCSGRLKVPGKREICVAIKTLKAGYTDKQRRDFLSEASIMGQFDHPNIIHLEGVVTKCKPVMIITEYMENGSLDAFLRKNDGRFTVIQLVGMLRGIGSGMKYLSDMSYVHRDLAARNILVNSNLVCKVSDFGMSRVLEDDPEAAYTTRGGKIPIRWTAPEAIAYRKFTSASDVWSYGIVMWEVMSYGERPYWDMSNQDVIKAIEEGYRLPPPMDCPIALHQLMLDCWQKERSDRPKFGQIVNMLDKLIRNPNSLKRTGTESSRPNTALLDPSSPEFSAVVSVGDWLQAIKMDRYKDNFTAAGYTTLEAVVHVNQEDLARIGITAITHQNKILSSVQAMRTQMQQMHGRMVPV

Cc1cccc(-c2ccc(-c3cc4cnc(Nc5cc(C(F)(F)F)ccc5C)nc4n(CCCCN)c3=O)c(Cl)c2)n1 [compound 28, 8-(4-Aminobutyl)-6-(2-chloro-4-(6-methylpyridin-2-yl)phenyl)-2-((2-methyl-5-(trifluoromethyl)phenyl)amino)pyrido[2,3-d]pyrimidin-7(8H)-one]
ΔTm 28 [1]: 3.4 °C | ΔTm 28 [2]: 3.9 °C | ΔTm 28 [3]: 6.5 °C | ΔTm 28 [4]: 7.5 °C | ΔTm 28 [5]: 2.9 °C | ΔTm 28 [6]: 8.0 °C | ΔTm 28 [7]: 0.7 °C | ΔTm 28 [8]: 8.5 °C | ΔTm 28 [9]: 4.9 °C | ΔTm 28 [10]: 0.3 °C

Cc1cccc(-c2ccc(-c3cc4cnc(Nc5ccc(CCCO)cc5)nc4n(CCCCN)c3=O)c(Cl)c2)n1 [compound 30, 8-(4-Aminobutyl)-6-(2-chloro-4-(6-methylpyridin-2-yl)phenyl)-2-((4-(3-hydroxypropyl)phenyl)amino)pyrido[2,3-d]pyrimidin-7(8H)-one]
ΔTm 30 [1]: 3.5 °C | ΔTm 30 [2]: 5.5 °C | ΔTm 30 [3]: 8.6 °C | ΔTm 30 [4]: 9.4 °C | ΔTm 30 [5]: 6.2 °C | ΔTm 30 [6]: 12.6 °C | ΔTm 30 [7]: 1.1 °C | ΔTm 30 [8]: 9.1 °C | ΔTm 30 [9]: 8.2 °C | ΔTm 30 [10]: 6.4 °C

Cc1cccc(-c2ccc(-c3cc4cnc(Nc5ccc(C)c(O)c5)nc4n(CCCCN)c3=O)c(Cl)c2)n1 [compound 32, 8-(4-Aminobutyl)-6-(2-chloro-4-(6-methylpyridin-2-yl)phenyl)-2-((3-hydroxy-4-methylphenyl)amino)pyrido[2,3-d]pyrimidin-7(8H)-one]
ΔTm 32 [1]: 4.6 °C | ΔTm 32 [2]: 5.3 °C | ΔTm 32 [3]: 5.9 °C | ΔTm 32 [4]: 8.9 °C | ΔTm 32 [5]: 7.3 °C | ΔTm 32 [6]: 11.5 °C | ΔTm 32 [7]: 1.0 °C | ΔTm 32 [8]: 8.8 °C | ΔTm 32 [9]: 7.7 °C | ΔTm 32 [10]: 6.6 °C

Cc1cccc(-c2ccc(-c3cc4cnc(NCCCN5CCCC5=O)nc4n(CCCCN)c3=O)c(Cl)c2)n1 [compound 27, MR30]
ΔTm MR30 (27) [1]: 2.0 °C | ΔTm MR30 (27) [2]: 3.6 °C | ΔTm MR30 (27) [3]: -0.3 °C | ΔTm MR30 (27) [4]: 4.1 °C | ΔTm MR30 (27) [5]: 2.6 °C | ΔTm MR30 (27) [6]: 4.5 °C | ΔTm MR30 (27) [7]: 0.5 °C | ΔTm MR30 (27) [8]: 5.0 °C | ΔTm MR30 (27) [9]: 6.4 °C | ΔTm MR30 (27) [10]: 0.4 °C

Cc1cccc(-c2ccc(-c3cc4cnc(Nc5ccc(O)cc5)nc4n(CCCCN)c3=O)c(Cl)c2)n1 [compound 31, 8-(4-Aminobutyl)-6-(2-chloro-4-(6-methylpyridin-2-yl)phenyl)-2-((4-hydroxyphenyl)amino) pyrido[2,3-d]pyrimidin-7(8H)-one]
ΔTm 31 [1]: 4.4 °C | ΔTm 31 [2]: 4.7 °C | ΔTm 31 [3]: 4.4 °C | ΔTm 31 [4]: 9.4 °C | ΔTm 31 [5]: 8.9 °C | ΔTm 31 [6]: 12.2 °C | ΔTm 31 [7]: 1.2 °C | ΔTm 31 [8]: 8.7 °C | ΔTm 31 [9]: 7.5 °C | ΔTm 31 [10]: 6.5 °C

Cc1cccc(-c2ccc(-c3cc4cnc(NCCCN5CCNCC5)nc4n(CCCCN)c3=O)c(Cl)c2)n1 [compound 29, 8-(4-Aminobutyl)-6-(2-chloro-4-(6-methylpyridin-2-yl)phenyl)-2-((3-(piperazin-1-yl)propyl)amino)pyrido[2,3-d]pyrimidin-7(8H)-one]
ΔTm 29 [1]: 2.1 °C | ΔTm 29 [2]: 3.2 °C | ΔTm 29 [3]: -2.1 °C | ΔTm 29 [4]: 1.9 °C | ΔTm 29 [5]: 1.4 °C | ΔTm 29 [6]: 4.2 °C | ΔTm 29 [7]: 0.3 °C | ΔTm 29 [8]: 6.0 °C | ΔTm 29 [9]: 5.8 °C | ΔTm 29 [10]: 0.7 °C
